Assay results: ChEMBL document CHEMBL1153894, “Chloroquine-astemizole hybrids with potent in vitro and in vivo antiplasmodial activity” (Bioorg Med Chem Lett, 2009)

Tests used:
Plasmodium falciparum [1] = assay: Antiplasmodial activity against chloroquine-resistant Plasmodium falciparum K1; assay type: functional, organism-based
L6 = assay: Cytotoxicity against rat L6 cells; assay type: cell-based
[2] = Selectivity ratio of cytotoxicity for rat L6 cells to IC50 for Plasmodium falciparum K1; assay type: cell-based; conditions: read-out: FC
Plasmodium falciparum [3] = assay: Antiplasmodial activity against chloroquine-resistant Plasmodium falciparum K1 at 5 uM; assay type: functional
Plasmodium berghei [4] = assay: Antiplasmodial activity as mean survival time against Plasmodium berghei infected mice (Mus musculus) at 4 x 10 mg/kg intraperitoneal dose; assay type: functional
Plasmodium berghei [5] = assay: Antiplasmodial activity as mean survival time against Plasmodium berghei infected mice (Mus musculus) at 4 x 50 mg/kg intraperitoneal dose; assay type: functional
Plasmodium berghei [6] = assay: Antiplasmodial activity as mean survival time against Plasmodium berghei infected mice (Mus musculus) at 4 x 20 mg/kg intraperitoneal dose; assay type: functional
Plasmodium berghei [7] = assay: Antiplasmodial activity as reduced parasitaemia against Plasmodium berghei infected mice (Mus musculus) at 4 x 10 mg/kg intraperitoneal dose; assay type: functional; design: scale not given: the % may be the effect or the level left
Plasmodium berghei [8] = assay: Antiplasmodial activity as reduced parasitaemia against Plasmodium berghei infected mice (Mus musculus) at 4 x 50 mg/kg intraperitoneal dose; assay type: functional; design: scale not given: the % may be the effect or the level left
Plasmodium berghei [9] = assay: Antiplasmodial activity as reduced parasitaemia against Plasmodium berghei infected mice (Mus musculus) at 4 x 20 mg/kg intraperitoneal dose; assay type: functional; design: scale not given: the % may be the effect or the level left

Structure (SMILES) | IC50 (Plasmodium falciparum [1]) | Activity (L6) | selectivity ratio [2] | Activity (Plasmodium falciparum [3]) | MST (Plasmodium berghei [4]) | MST (Plasmodium berghei [5]) | MST (Plasmodium berghei [6]) | Activity (Plasmodium berghei [7]) | Activity (Plasmodium berghei [8]) | Activity (Plasmodium berghei [9])
Fc1ccc(Cn2c(N3CCC(Nc4ccnc5cc(Cl)ccc45)CC3)nc3ccccc32)cc1 | 64 nM | 9.1 µM | > 100 |  |  |  |  |  |  | 
Fc1ccc(Cn2c(N3CCN(CCCNc4ccnc5cc(Cl)ccc45)CC3)nc3ccccc32)cc1 | 23 nM | 6.86 µM | > 100 |  |  |  |  |  |  | 
Fc1ccc(Cn2c(N3CCN(c4ccnc5cc(Cl)ccc45)CC3)nc3ccccc32)cc1 | 610 nM | 126 µM | > 100 |  |  |  |  |  |  | 
COc1ccc(CCN2CCC(Nc3nc4ccccc4n3Cc3ccc(F)cc3)CC2)cc1 [ASTEMIZOLE] |  |  | > 100 | 50% |  |  |  |  |  | 
Fc1ccc(Cn2c(NC3CCN(c4ccnc5cc(Cl)ccc45)CC3)nc3ccccc32)cc1 | 37 nM | 8.8 µM | > 100 |  | 17 days | 13 days | 8 days | 99% | 99% | 80%
